Assay results: patent publication US9522913B2, “Pesticidally active bicyclic heterocycles with sulphur containing substituents” (Syngenta Participations AG, priority 2013, dated 2016)

Key:
Type in all cases: in vivo
[1] = tested on: Aedes aegypti (yellow fever mosquito); assay: whole plant or invertebrate; conditions: after 48 h, application rate of 200 ppm in ethanol, adult females, read-out: control of Aedes aegypti (mortality)
Method: Test solutions, at an application rate of 200 ppm in ethanol, were applied to 12-well tissue culture plates. Once the deposits were dry, five, two to five days old adult female Aedes aegypti were added to each well, and sustained with a 10% sucrose solution in a cotton wool plug. Assessment of knockdown was made one hour after introduction, and mortality was assessed at 24 and 48 hours after introduction.

[2] = tested on: Plutella xylostella (diamond back moth); assay: Activity against Plutella xylostella, larvicide, feeding/residual contact activity, preventive (Example B4); conditions: 120 h, artificial diet, L2 larvae, 5 days incubation, read-out: activity (larval mortality, antifeedant, growth regulation)
Method: (§1) (Larvicide, Feeding/Residual Contact Activity, Preventive)
24-well microtiter plate (MTP) with artificial diet was treated with test solutions by pipetting. After drying, the MTPs were infested with L2 larvae (10-15 per well). After an incubation period of 5 days, samples were checked for larval mortality, antifeedant and growth regulation.

[3] = tested on: Myzus persicae (green peach aphid); assay: Activity against Myzus persicae, feeding/residual contact activity, preventive, mixed population (Example B5); conditions: foliar, 144 h, sunflower leaf discs sprayed, mixed-age aphids, 6 DAT
Method: (Feeding/Residual Contact Activity, Preventive), Mixed Population
Sunflower leaf discs were placed on agar in a 24-well microtiter plate and sprayed with test solutions.
After drying, the leaf discs were infested with an aphid population of mixed ages. After an incubation period of 6 DAT, samples were checked for mortality and special effects (e.g. phytotoxicity).

[4] = tested on: Spodoptera littoralis (Egyptian cotton leaf worm); assay: Activity against Spodoptera littoralis, systemic activity (Example B3); conditions: 120 h, systemic via lettuce roots in agar, 5 days after infestation, read-out: activity (mortality, repellent effect, feeding behavior, growth regulation)
Excerpt: Test compounds were applied by pipette into 24 well plates and mixed with agar. Lettuce seeds were placed on the agar and the multi well plate is closed by another plate which contains also agar. After 7 days the roots have absorbed the compound and the lettuce has grown into the lid plate. The lettuce leaves were now cut off into the lid plate. Spodoptera eggs were pipetted through a plastic stencil on a humid gel blotting paper and the plate closed with it. The samples are checked for mortality, repellent effect, feeding behavior, and growth regulation 5 days after infestation.

[5] = tested on: Spodoptera littoralis (Egyptian cotton leaf worm); assay: Activity against Spodoptera littoralis, larvicide, feeding/residual contact activity, preventive (Example B1); conditions: foliar, 72 h, cotton leaf discs sprayed, L1 larvae, 3 days after treatment, read-out: activity (mortality, repellent effect, feeding behaviour, growth regulation)
Excerpt: (Larvicide, Feeding/Residual Contact Activity, Preventive) Cotton leaf discs are placed on agar in a 24-well microtiter plate and sprayed with test solutions. After drying, the leaf discs are infested with 5 L1 larvae. The samples are checked for mortality, repellent effect, feeding behaviour, and growth regulation 3 days after treatment (DAT).

[6] = tested on: Bemisia tabaci (cotton white fly); assay: Activity against Bemisia tabaci, adulticide contact activity, preventative (Example B7); conditions: foliar, 168 h, cotton leaf discs sprayed, adult white flies, 7 DAT
Method: (Adulticide Contact Activity, Preventative), Adult
Cotton leaf discs were placed on agar in a 24-well microtiter plate and sprayed with test solutions. After drying, the leaf discs were infested with adult white flies. After an incubation period of 7 DAT, samples were checked for mortality and special effects (e.g. phytotoxicity).

[7] = tested on: Myzus persicae (green peach aphid); assay: Activity against Myzus persicae, systemic/feeding activity, curative, mixed population (Example B6); conditions: 144 h, roots of infested pea seedlings in test solution, 6 days after introduction
Excerpt: (Systemic/Feeding Activity, Curative), Mixed Population
Roots of pea seedlings, infested with an aphid population of mixed ages, were placed directly in the test solutions. 6 days after introduction, samples were checked for mortality and special effects on the plant.

[8] = tested on: Diabrotica balteata (corn root worm); assay: Activity against Diabrotica balteata, larvicide, feeding/residual contact activity, preventive (Example B2); conditions: 120 h, maize sprouts sprayed, L2 larvae, 5 days incubation, read-out: activity (larval mortality, growth regulation)
Method: as §1
Maize sprouts, placed on an agar layer in 24-well micro titer plates (MTP) are treated with test solutions by spraying. After drying, the MTPs are infested with larvae (L2, 6-10 per well). After an incubation period of 5 days, samples are checked for larval mortality, and growth regulation.

[9] = tested on: Rhopalosiphum padi (bird cherry oat aphid); assay: Seed treatment activity against Rhopalosiphum padi on barley (Example B8); conditions: after 28 days, initial loading of 0.3 mg a.i. per seed
Method: Seed Treatment Activity Against Rhopalosiphum padi (Bird Cherry Oat Aphid) (Seed Treatment Systemic/Feeding Activity on Barley, Preventive, Initial and Residual Activity (Infestation 2 and 4 Weeks after Sowing)), Mixed Population
A treated barley seed is sown in a 350 ml pot filled with soil. Two weeks after sowing phytotoxicity is estimated and expressed in percentage compared to the control. Furthermore the barley seedling is infested with an aphid population of mixed stages. After an incubation period of seven days the grade of efficacy compared to the control is estimated and expressed in percentage. Treatments with all replicates having a level of efficacy over 90% are re-infested with aphids 28 days after sowing for determination of residual activity. Assessment procedures remain the same as described above.

SMILES | mortality at 200 ppm [1] | mortality at 400 ppm [2] | mortality at 400 ppm [3] | mortality at 12.5 ppm [4] | mortality at 400 ppm [5] | mortality at 400 ppm [6] | mortality at 24 ppm [7] | mortality at 400 ppm [8] | control of Rhopalosiphum padi (efficacy compared to the control) [9]
CCC(=O)N=S(=O)(CC)c1cc(C(F)(F)F)cnc1-c1nc2cc(C(F)(F)F)cnc2n1C (stereo not shown) [P1.7, N-[ethyl-[2-[3-methyl-6-(trifluoromethyl)imidazo[4,5-b]pyridin-2-yl]-5-(trifluoromethyl)-3-pyridyl]-oxo-λ^6-sulfanylidene]propanamide] | ≥ 80% | > 80% | > 80% | ≥ 80% | > 80% | > 80% | – | – | –
CCS(=O)(=NC(=O)OC)c1cc(C(F)(F)F)cnc1-c1nc2cc(C(F)(F)F)cnc2n1C (stereo not shown) [P1.8, methyl N-[ethyl-[2-[3-methyl-6-(trifluoromethyl)imidazo[4,5-b]pyridin-2-yl]-5-(trifluoromethyl)-3-pyridyl]-oxo-λ^6-sulfanylidene]carbamate] | ≥ 80% | > 80% | > 80% | ≥ 80% | > 80% | > 80% | ≥ 80% | – | –
CCS(=O)(=NC=O)c1cc(C(F)(F)F)cnc1-c1nc2cc(C(F)(F)F)cnc2n1C (stereo not shown) [P1.10, N-[ethyl-[2-[3-methyl-6-(trifluoromethyl)imidazo[4,5-b]pyridin-2-yl]-5-(trifluoromethyl)-3-pyridyl]-oxo-λ^6sulfanylidene]formamide] | – | > 80% | > 80% | ≥ 80% | > 80% | > 80% | ≥ 80% | – | –
CCS(=O)(=NC#N)c1cc(C(F)(F)F)cnc1-c1nc2cc(C(F)(F)F)cnc2n1C (stereo not shown) [P1.2, [ethyl-[2-[3-methyl-6-(trifluoromethyl)imidazo[4,5-b]pyridin-2-yl]-5-(trifluoromethyl)-3-pyridyl]-oxo-λ^6sulfanylidene]cyanamide] | – | – | – | – | > 80% | – | – | > 80% | –
CCS(=N)(=O)c1cc(C(F)(F)F)cnc1-c1nc2cc(C(F)(F)F)cnc2n1C (stereo not shown) [P1.4, ethyl-imino-[2-[3-methyl-6-(trifluoromethyl)imidazo[4,5-b]pyridin-2-yl]-5-(trifluoromethyl)-3-pyridyl]-oxo-λ^6-sulfane] | – | > 80% | > 80% | ≥ 80% | > 80% | > 80% | ≥ 80% | – | at least 80%
CC/S(=N\C#N)c1cc(C(F)(F)F)cnc1-c1nc2cc(C(F)(F)F)cnc2n1C (stereo not shown) [P1.1, [ethyl-[2-[3-methyl-6-(trifluoromethyl)imidazo[4,5-b]pyridin-2-yl]-5-(trifluoromethyl)-3-pyridyl]-λ^4-sulfanylidene]cyanamide] | – | – | – | – | – | – | – | > 80% | –
CCS(=O)(=NC)c1cc(C(F)(F)F)cnc1-c1nc2cc(C(F)(F)F)cnc2n1C (stereo not shown) [P1.6, ethyl-methylimino-[2-[3-methyl-6-(trifluoromethyl)imidazo[4,5-b]pyridin-2-yl]-5-(trifluoromethyl)-3-pyridyl]-oxo-λ^6-sulfane] | ≥ 80% | > 80% | > 80% | ≥ 80% | > 80% | > 80% | ≥ 80% | > 80% | –
CCS(=O)(=NC(=O)C(F)(F)F)c1cc(C(F)(F)F)cnc1-c1nc2cc(C(F)(F)F)cnc2n1C (stereo not shown) [P1.3, N-[ethyl-[2-[3-methyl-6-(trifluoromethyl)imidazo[4,5-b]pyridin-2-yl]-5-(trifluoromethyl)-3-pyridyl]-oxo-λ^6-sulfanylidene]-2,2,2-trifluoro-acetamide] | ≥ 80% | > 80% | > 80% | ≥ 80% | > 80% | – | ≥ 80% | > 80% | –
CCS(=O)(=NC(N)=O)c1cc(C(F)(F)F)cnc1-c1nc2cc(C(F)(F)F)cnc2n1C (stereo not shown) [P1.5, [ethyl-[2-[3-methyl-6-(trifluoromethyl)imidazo[4,5-b]pyridin-2-yl]-5-(trifluoromethyl)-3-pyridyl]-oxo-λ^6sulfanylidene]urea] | ≥ 80% | – | – | – | – | – | – | > 80% | –
